Data taken from US20090074885A1, “Reversible Hydrophobic Modification of Drugs for Improved Delivery to Cells” (Roche Madison Inc., priority 2003, published 2009).
Entries after “also recorded” stand apart in the source; their conditions may differ. Read-outs that look alike come from different tables or passages of the source.

Experiments:
[1] = tested on: Hepa 1-6 (mouse hepatoma); test: WST cytotoxicity assay, Hepa 1-6; type: cell-based; settings: for IC50: Hepa 1-6, 4 min drug exposure, read-out: Mean IC50
Description: Antiproliferative/Cytotoxic in vitro studies on PI, RRH-PI prodrugs, melphalan, and C12PMMA-melphalan. In vitro cytotoxicity testing was conducted on Hepa 1-6 (mouse hepatoma), SK-OV-3 (human ovarian carcinoma), and MC38 (mouse colon carcinoma) cells using a tetrazolium based assay (WST, Dojindo Molecular Technologies). For the WST assay, Hepa 1-6 (2.0×10^5 cells well), SK-OV-3 (7.5×10^5 cells well), and MC38 (8.5×10^5 cells well) were seeded in 1000 μL media into 12-well plates 24 h prior to testing (starting confluency ˜50%). Following removal of media, drug/prodrug solution was added drop-wise to quadruplicate wells, using the mixing chamber. Effective drug concentrations were calculated from the amount of drug added in the total volume of OS and aqueous solution. Following 4 min of drug solution exposure, the solution was removed, and 1000 μl fresh complete media was added to each well. After the cells were incubated for 24-48 h, WST-1 (20 μl of a 5 mM solution in PBS) and N-methylphenazonium methyl sulfate (PMS, 20 μl 0.2 mM solution in PBS) were added and the cells were incubated for 1-4 h. For testing with MC38 cells, the amounts of WST-1 and PMS were doubled. Following incubation, 100 μl of sample was transferred to quadruplicate wells on a 96-well plate, and the absorbance (438 nm) values were measured on a SPECTRAmax Plus^384 microplate spectrophotometer (Molecular Devices Corporation). Data represents the mean A438 values of 16 wells with standard deviation, corrected for media contribution, and normalized against cells in media with no drug/prodrug treatment (reported as % cell viability±standard deviation).
The concentration of drug (μM) that is required for 50% inhibition in vitro is reported as the IC50. The reported values were calculated from the best fit line (Excel) for a plot of effective drug concentration against % cell viability, and include the r^2 value. The reported IC50 values for multiple RRH-PI plots are reported as IC50 (μM)±standard deviation.

[2] = tested on: cells exposed to the peritoneal cavity; test: IP application to normal mice, confocal microscopy; type: in vivo, mouse; settings: 10-60 min
Description: For evaluation of prodrug delivery to exposed tissues in the peritoneum, we tested IP application of propidium iodide, BDMSODS-PI, and C12PMMA-PI to both normal mice and in a mouse model of disseminated peritoneal ovarian cancer. All procedures were executed under Isoflurane inhalation anesthesia. In normal mice either the abdominal cavity was opened and the drug mixture was directly applied on abdominal organs (220 μL of drug-OS/ITG over 30 sec), or the drug mixture was injected through the abdominal wall (1 mL of drug-OS/ITG over 1 min). For both delivery protocols, the dual pump mixing chamber was used. After 10-60 min, the animals were euthanized and tissues were harvested, frozen, sectioned, stained with ToPro-3 and Phalloidin Alexa 488, and examined by laser confocal microscopy.

MC38 liver metastases = test: Liver arterial bolus injection (LABI) in mice with MC38 liver metastases; type: in vivo, C57BL mice; settings: for PI staining of MC38 liver metastases: hepatic artery (LABI) delivery
Description: All surgical procedures were performed under Isoflurane anesthesia. Liver tumors models were established in C57BL mice using MC38 (colon carcinoma) and Hepa 1-6 (hepatoma), in BALB/c mice using B16 (melanoma), and in A/J mice using NXS2 (neuroblastoma) cell lines. Mice were inoculated via the portal vein with 1×10^4 MC38 cells or 0.5-1.25×10^6 Hepa 1-6 cells, or via the tail vein with 0.5-1.25×10^6 B16 or NXS2 cells. Tumor formation was allowed to progress for 2-3 weeks with periodic examination for tumor growth prior to drug/prodrug treatment.
The right gastro-duodenal artery was freed from surrounding tissue and the common hepatic artery was clamped occluding blood flow. The distal part of the right gastroduodenal artery was sutured, a 35 G needle was inserted into the gastroduodenal artery, and secured during the single bolus injection. Following the injection, the needle was retracted and the proximal part of gastroduodenal artery was sutured, and hepatic artery flow was restored. Alternatively, the celiac trunk was clamped close to the aorta and a 35 G needle was inserted above the clamp. The left gastric, splenic, and gastro-duodenal arteries were clamped in order to direct all of the drug solution to the liver. This latter approach was advantageous in the C57BL mouse model because of anatomical variations involving the hepatic artery.
LABI delivery of drug/prodrug (0.150 μmol, 220 μl total injection volume) and controls were performed using the mixing chamber and syringe pumps as previously described. For fluorescent microscopy analysis, the livers were harvested 5 min after LABI, snap frozen in O.C.T. compound, sectioned, stained (for confocal, green—actin (Alexa 488), blue—nuclei (ToPro-3)), and analyzed by fluorescent (Axioplan2) fluorescent microscope (Zeiss) in the rhodamine fluorescence channel (λex=BP 450/12, λem=LP 590 nm filter set) or in the fluorescein fluorescent channel (λex=BP 546/90, λem=LP 515 nm filter set) due to signal intensity) and confocal microscopy (Axioplan 2, Zeiss). For experiments designed to determine the number of PI positive cells, five random fields containing liver tumors and five random fields containing portal triads void of tumor were imaged. The number of cells and positive cells were counted to determine the percentage of positive cells in the corresponding regions.

[3] = tested on: various tissues of normal mice; test: Propidium iodide delivery to a variety of target cells by injection or topical administration; type: in vivo, mouse
Description: Propidium iodide delivery to a variety of target cells. […] All biliary and gall bladder arteries, as well as bladder epithelium also stained (FIG. 14B). […] During injection time the common carotid artery was temporary occluded. After injection the blood flow was restored and animals sacrificed 5 min later. […] After three weeks, mice were injected with modified PI. […] Injection was performed using similar 35 G needle into right ureter close to the bladder. […] Clamps were then released and 5 min later animals were sacrificed. The intestine lumen was flushed with 1 ml of ITG and analyzed as described above.

[4] = tested on: Hepa 1-6 (mouse hepatoma) cells; test: In vitro cellular uptake by fluorescence microscopy, Hepa 1-6; type: cell-based; settings: 0.150 μmol in 220 μl via mixing chamber, 30 sec exposure
Description: In Vitro cellular uptake of PI, RRH-PI compounds, and IV evaluated by fluorescence measurements. PI and the RRH-prodrugs were tested for cellular uptake on several cell lines which included B16 (murine melanoma), Hepa 1-6 (mouse hepatoma), SK-OV-3 (also SKOV-3, human ovarian carcinoma), OVCAR-3 (human ovarian carcinoma), Jurkat (human T-lymphocyte), 293 (human embryonic kidney), and MC38 (mouse colon carcinoma) cells. Adherent cells were plated at 2.5×10^5 cells/well on 6-well plates 24 h prior to testing. The growth media was removed from individual wells and the drug/prodrug was immediately added to the well with the mixing chamber. Final drug/prodrug concentrations were 0.150 μmol in 220 μl total volume (20 μl OS, 200 μl ITG). After 30 sec the drug solution was removed (aspirated) and 2 ml complete media was added to the cells. Experiments conducted with prodrug that was hydrolyzed prior to application to the cells followed a similar protocol, however the combined solution obtained after passing through the mixing chamber was collected and allowed to sit at ambient temperature for 5 min prior to application on the cells. […] SYTOX Green (20 μl of 5 μM solution in 20 mM Hepes, pH 7.4) was added to the wells and the cells were examined. Each condition was repeated in 2 or 3 wells, and the cells were immediately examined by microscopy. Fluorescent microscopy studies were conducted with a three laser LSM 510 confocal microscope, an Axiovert S100 fluorescent microscope, or an Axioplan2 fluorescent microscope (all Zeiss) equipped with filter sets for the rhodamine fluorescence channel (λex=BP 450/12, λem=LP 590 nm filter set) and the fluorescein fluorescent channel (λex=BP 546/90, λem=LP 515 nm filter set). Imaging was performed with an AxioCam digital camera (Zeiss), with AxioVision imaging software (V 4.5, Zeiss). For all images, identical camera settings and exposure times were used on comparative sample and control images. Images were processed with Photoshop (Adobe) for level and brightness using identical settings between sample and control images.

[5] = tested on: SK-OV-3 (human ovarian carcinoma) cells; test: In vitro cellular uptake by fluorescence microscopy, SK-OV-3; type: cell-based; settings: for PI positive cells: 0.150 μmol in 220 μl via mixing chamber, 30 sec exposure; for PI positive cells, prodrug premixed with ITG: premixed with ITG (5 min) before application to the cells
Description: In Vitro cellular uptake of PI, RRH-PI compounds, and IV evaluated by fluorescence measurements. […] Adherent cells were plated at 2.5×10^5 cells/well on 6-well plates 24 h prior to testing. The growth media was removed from individual wells and the drug/prodrug was immediately added to the well with the mixing chamber. […] After 30 sec the drug solution was removed (aspirated) and 2 ml complete media was added to the cells. Experiments conducted with prodrug that was hydrolyzed prior to application to the cells followed a similar protocol, however the combined solution obtained after passing through the mixing chamber was collected and allowed to sit at ambient temperature for 5 min prior to application on the cells. Experiments conducted with Calcein AM (Invitrogen, 100 μl of 20 μM solution in complete media) followed a similar protocol for drug treatment (4 min treatment). Experiments conducted with SYTOX Green (Invitrogen) followed a similar protocol for drug treatment. […] Each condition was repeated in 2 or 3 wells, and the cells were immediately examined by microscopy. Fluorescent microscopy studies were conducted with a three laser LSM 510 confocal microscope, an Axiovert S100 fluorescent microscope, or an Axioplan2 fluorescent microscope (all Zeiss) equipped with filter sets for the rhodamine fluorescence channel (λex=BP 450/12, λem=LP 590 nm filter set) and the fluorescein fluorescent channel (λex=BP 546/90, λem=LP 515 nm filter set). Imaging was performed with an AxioCam digital camera (Zeiss), with AxioVision imaging software (V 4.5, Zeiss). For all images, identical camera settings and exposure times were used on comparative sample and control images. Images were processed with Photoshop (Adobe) for level and brightness using identical settings between sample and control images. For experiments conducted with IV, the cells were plated on 6-well plates with cover slips. […] Imaging was conducted on an Axioplan2 fluorescent microscope (Zeiss) and the same fields were imaged with phase contrast illumination, in the rhodamine fluorescence channel (λex=BP 450/12, λem=LP 590 nm filter set), and in the fluorescein fluorescent channel (λex=BP 546/90, λem=LP 515 nm filter set). IV was also mixed with PI and then delivered to SK-OV-3 cells, and the cells were imaged as before. In one protocol, equal amounts of IV (15.0 mM in DMSO) and PI (15.0 mM in DMSO) were combined and the resulting solution was added to cells via the mixing chamber. In a second method, PI was taken up in the ITG solution (0.748 mM) and mixed with IV (7.48 mM in DMSO) in the mixing chamber. […] The cells were imaged as before following 30 sec-4 min exposure to the drug solution.

[6] = intestinal intra lumen application, 100 μg

What does the source list for `CCCCCCCCCCCCCCCCCC[Si](C)(C)Nc1ccc2c(c1)c(-c1ccccc1)[n+](CCC[N+](C)(CC)CC)c1cc(N[Si](C)(C)CCCCCCCCCCCCCCCCCC)ccc21.[I-].[I-]` [II, 3,8-bis[((dimethyl)octadecylsilazyl)amine] 5-(3,3-diethyl-3-methylammoniumpropyl) 6-phenyl phenanthridinium diiodide]?
cell viability at highest concentration tested, prodrug premixed with ITG (10 min) ([1]; Hepa 1-6, 833 μM): 108±1.3%; IC50 ([1]; WST 24 h after): 282 µM; IC50 ([1]; WST 48 h after): 334 µM; nuclear labeling of peritoneal tissues [2]: near-exclusive PI^+-staining of cells exposed to the peritoneal cavity; cells PI positive in liver parenchyma region (MC38 liver metastases; LABI, confocal counting): 1%; cells PI positive in portal vein region (MC38 liver metastases; LABI, confocal counting): 23%; cells PI positive in MC38 metastases (MC38 liver metastases; LABI, confocal counting, average of five images): 94%; PI positive cells in other organs (heart, lung, spleen, and kidneys) (MC38 liver metastases; after LABI): No PI positive cells were observed in any other organ examined; total number of PI positive non tumor cells in the liver (MC38 liver metastases; estimated from region counts): 2-3%; PI staining of MC38 liver metastases (MC38 liver metastases): strong nuclear staining of the metastases; PI staining of MC38 liver metastases (MC38 liver metastases; listed as BDMODS-PI): intense, near-exclusive PI-staining of MC38 liver metastases; also recorded: strongly labeled with PI; also recorded: nearly all cells labeled; nuclear staining ([3]; injection into bile duct of normal mouse liver): strong nuclear staining of all bile duct epithelial cells; nuclear staining ([3]; injection into emptied bladder): strong staining of bladder transitional epithelium; nuclear staining ([3]; injection into hepatic artery of normal mouse liver): strong nuclear staining of hepatic artery endothelial and smooth-muscle cells; nuclear staining ([3]; injection into right carotid artery): strong staining of brain endothelial cells; nuclear staining ([3]; injection into the ureter): strong staining of ureter transitional epithelium nuclei; nuclear staining ([3]; injection into unclamped portal vein with preserved blood flow): strong nuclear staining of portal vein cells only; nuclear staining [3, 6]: strong labeling of all enterocyte nuclei; nuclear staining ([3]; portal vein clamped during injection): propidium iodide staining was observed in a majority of hepatocytes; staining of cells (PI positive) [4]: strong nuclear staining in all of the cells; PI positive cells [5]: nearly all of the cells being PI positive; PI positive cells, prodrug premixed with ITG [5]: very few PI positive cells; PI positive cells, prodrug premixed with ITG ([5]; listed as BDMODS-PI): did not show PI positive staining

Which results are given for `CCCCCCCCCCCCNC(=O)CCC(=CCC(=O)O)C(=O)Nc1ccc2c(c1)c(-c1ccccc1)[n+](CCC[N+](C)(CC)CC)c1cc(NC(=O)C(=CCC(=O)O)CCC(=O)NCCCCCCCCCCCC)ccc21.[I-].[I-]` [III, 3,8-bis-[2-(2 carboxyethylidene)-4-(dodecarbamoyl)-1-oxo-butylamine] 5-(3,3-diethyl-3-methylammoniumpropyl) 6-phenyl phenanthridinium diiodide]?
nuclear labeling of peritoneal tissues [2]: near-exclusive PI^+-staining of cells exposed to the peritoneal cavity; PI staining of MC38 liver metastases (MC38 liver metastases): paralleled the results detailed with II; staining of cells (PI positive) [4]: paralleled the results obtained with II; PI positive cells [5]: paralleled the results obtained with II

Which IC50 ([1]; WST 24 h after) does the source give for `CC[N+](C)(CC)CCC[n+]1c(-c2ccccc2)c2cc(N)ccc2c2ccc(N)cc21.[I-].[I-]` [PI, Propidium iodide, reference compound] here?
The IC50 was > 1250 µM.

What about the IC50 ([1]; WST 48 h after) of the same molecule?
The IC50 was > 1700 µM.

And the “nuclear labeling of peritoneal tissues” value [2]?
Its value is “extremely rare nuclear labeling”.

And the “PI staining of MC38 liver metastases” value (MC38 liver metastases)?
Its value is “greatly decreased number of PI positive cells within the MC38 metastases”.

And the “PI staining of MC38 liver metastases” value (MC38 liver metastases; listed as unmodified PI)?
The value was “Few MC38 metastases labeled”.

What about the nuclear staining ([3]; injection into any vessel or bile duct of normal liver) of the same molecule?
The nuclear staining was “little to no nuclear staining”.

What about the nuclear staining [3, 6] of the same molecule?
The nuclear staining was “PI staining was observed in a few intestinal villi cells”.

And the “staining of cells (PI positive)” value [4]?
Its value is “stained very few cells”.

And the PI positive cells [5]?
The PI positive cells was “small percentage of PI positive cells”.

And the PI positive cells ([5]; listed as propidium iodide)?
Its PI positive cells is “stained very few cells”.
